Measured values taken from the NIST ThermoML archive (doi:10.1016/j.jct.2005.11.003).

Test: xn = mol fraction of the nth substance listed
Conditions: 298.15 K, 101 kPa, Liquid

ClCCCCCl [1,4-dichlorobutane] + CCCCOC(C)=O
Conditions | mass density [kg/m3]
x2 = 0.0529 | 1117.81
x2 = 0.1035 | 1102.8
x2 = 0.1569 | 1087.25
x2 = 0.2092 | 1072.35
x2 = 0.2638 | 1057.04
x2 = 0.3207 | 1041.46
x2 = 0.3754 | 1026.74
x2 = 0.4326 | 1011.67
x2 = 0.4906 | 996.66
x2 = 0.5505 | 981.49
x2 = 0.6125 | 966.12
x2 = 0.6735 | 951.29
x2 = 0.7365 | 936.28
x2 = 0.8011 | 921.17
x2 = 0.8692 | 905.6
x2 = 0.9352 | 890.8

CCCCOC(=O)CCC [butyl butanoate] + ClCCCCCCCl
Conditions | mass density [kg/m3]
x1 = 0.0545 | 1051.6
x1 = 0.1071 | 1040.01
x1 = 0.16 | 1028.52
x1 = 0.2136 | 1017
x1 = 0.2692 | 1005.25
x1 = 0.3239 | 993.9
x1 = 0.3815 | 982.05
x1 = 0.439 | 970.43
x1 = 0.5565 | 947.09
x1 = 0.6826 | 922.79
x1 = 0.7398 | 911.99
x1 = 0.803 | 900.24
x1 = 0.8726 | 887.54
x1 = 0.9323 | 876.78

CCCCOC(=O)CCC [butyl butanoate] + ClCCCCCCl
Conditions | mass density [kg/m3]
x1 = 0.0481 | 1081.06
x1 = 0.0957 | 1067.51
x1 = 0.1451 | 1053.83
x1 = 0.1939 | 1040.72
x1 = 0.2465 | 1026.89
x1 = 0.3533 | 1000.09
x1 = 0.4105 | 986.32
x1 = 0.5282 | 959.19
x1 = 0.6536 | 932.02
x1 = 0.7875 | 904.75
x1 = 0.8568 | 891.25

CCCCOC(=O)CCC [butyl butanoate] + ClCCCCCl
Conditions | mass density [kg/m3]
x1 = 0.0415 | 1117.54
x1 = 0.0836 | 1101.67
x1 = 0.1727 | 1070.09
x1 = 0.2202 | 1054.28
x1 = 0.322 | 1022.51
x1 = 0.3752 | 1006.99
x1 = 0.4319 | 991.17
x1 = 0.4904 | 975.58
x1 = 0.554 | 959.43
x1 = 0.6186 | 943.82
x1 = 0.7579 | 912.57
x1 = 0.8338 | 896.78
x1 = 0.9131 | 881.09

ClCCCCCCl [1,5-dichloropentane] + CCCCOC(C)=O
Conditions | mass density [kg/m3]
x2 = 0.0558 | 1082.62
x2 = 0.1119 | 1070.12
x2 = 0.1697 | 1057.27
x2 = 0.2268 | 1044.6
x2 = 0.3432 | 1018.88
x2 = 0.4608 | 993.04
x2 = 0.5786 | 967.32
x2 = 0.6957 | 941.92
x2 = 0.8167 | 915.81
x2 = 0.8757 | 903.13
x2 = 0.9364 | 890.15

ClCCCCCCl [1,5-dichloropentane] + CCCCOC(=O)CC
Conditions | mass density [kg/m3]
x2 = 0.0528 | 1081.66
x2 = 0.1047 | 1068.55
x2 = 0.1575 | 1055.43
x2 = 0.2116 | 1042.24
x2 = 0.3217 | 1016.04
x2 = 0.3799 | 1002.5
x2 = 0.4359 | 989.71
x2 = 0.5529 | 963.57
x2 = 0.6167 | 949.63
x2 = 0.6773 | 936.67
x2 = 0.7411 | 923.24
x2 = 0.8045 | 910.15
x2 = 0.8667 | 897.51
x2 = 0.9333 | 884.23

ClCCCCl [1,3-dichloropropane] + CCCCOC(=O)CC
Conditions | mass density [kg/m3]
x2 = 0.0407 | 1159.66
x2 = 0.1229 | 1123.34
x2 = 0.2119 | 1087.43
x2 = 0.2612 | 1068.85
x2 = 0.3653 | 1032.69
x2 = 0.4229 | 1014.17
x2 = 0.4801 | 996.73
x2 = 0.5422 | 978.78
x2 = 0.6802 | 942.1
x2 = 0.7534 | 924.3
x2 = 0.9139 | 888.6

ClCCCCl [1,3-dichloropropane] + CCCCOC(C)=O
Conditions | mass density [kg/m3]
x2 = 0.046 | 1159.83
x2 = 0.0904 | 1142.04
x2 = 0.1361 | 1124.29
x2 = 0.1839 | 1106.48
x2 = 0.2336 | 1088.53
x2 = 0.2841 | 1070.96
x2 = 0.3935 | 1035.06
x2 = 0.5106 | 999.49
x2 = 0.6371 | 964.06
x2 = 0.7043 | 946.37
x2 = 0.7737 | 928.82
x2 = 0.8467 | 911.1
x2 = 0.923 | 893.45

ClCCCCCCCl [1,6-dichlorohexane] + CCCCOC(C)=O
Conditions | mass density [kg/m3]
x2 = 0.0673 | 1052.28
x2 = 0.1308 | 1041.35
x2 = 0.1929 | 1030.53
x2 = 0.2552 | 1019.5
x2 = 0.3164 | 1008.57
x2 = 0.3768 | 997.63
x2 = 0.4368 | 986.64
x2 = 0.4966 | 975.54
x2 = 0.554 | 964.77
x2 = 0.6113 | 953.89
x2 = 0.6692 | 942.75
x2 = 0.7252 | 931.87
x2 = 0.7823 | 920.59
x2 = 0.8912 | 898.78
x2 = 0.9466 | 887.47

CCCCOC(=O)CCC [butyl butanoate] + ClCCCCl
Conditions | mass density [kg/m3]
x1 = 0.0357 | 1159.7
x1 = 0.0715 | 1141.38
x1 = 0.1103 | 1122.7
x1 = 0.1503 | 1104.39
x1 = 0.1936 | 1085.72
x1 = 0.2376 | 1067.78
x1 = 0.2869 | 1048.84
x1 = 0.3371 | 1030.74
x1 = 0.3921 | 1012.12
x1 = 0.4496 | 993.89
x1 = 0.5117 | 975.49
x1 = 0.5785 | 957.03
x1 = 0.6494 | 938.78
x1 = 0.7262 | 920.43
x1 = 0.8114 | 901.61
x1 = 0.8978 | 884.02

ClCCCCCl [1,4-dichlorobutane] + CCCCOC(=O)CC
Conditions | mass density [kg/m3]
x2 = 0.0475 | 1117.36
x2 = 0.0925 | 1102.34
x2 = 0.1874 | 1072.01
x2 = 0.239 | 1056.26
x2 = 0.29 | 1041.21
x2 = 0.3443 | 1025.65
x2 = 0.4006 | 1010.07
x2 = 0.5171 | 979.4
x2 = 0.5798 | 963.71
x2 = 0.6418 | 948.74
x2 = 0.7075 | 933.4
x2 = 0.8474 | 902.46
x2 = 0.8829 | 894.96
x2 = 0.9206 | 887.11
x2 = 0.9575 | 879.61

ClCCCl [1,2-dichloroethane] + CCCCOC(C)=O
Conditions | mass density [kg/m3]
x2 = 0.0359 | 1223.55
x2 = 0.0733 | 1201.71
x2 = 0.1139 | 1178.94
x2 = 0.1559 | 1156.86
x2 = 0.1988 | 1135.53
x2 = 0.2456 | 1113.51
x2 = 0.2953 | 1091.52
x2 = 0.3469 | 1070.08
x2 = 0.4021 | 1048.45
x2 = 0.4599 | 1027.18
x2 = 0.5233 | 1005.31
x2 = 0.5883 | 984.3
x2 = 0.6585 | 963
x2 = 0.7344 | 941.52
x2 = 0.8173 | 919.59
x2 = 0.9013 | 898.96

ClCCCCCCCl [1,6-dichlorohexane] + CCCCOC(=O)CC
Conditions | mass density [kg/m3]
x2 = 0.0591 | 1052.23
x2 = 0.1161 | 1041.11
x2 = 0.1728 | 1030.03
x2 = 0.2284 | 1019.22
x2 = 0.345 | 996.62
x2 = 0.4083 | 984.38
x2 = 0.4668 | 973.12
x2 = 0.5258 | 961.74
x2 = 0.6403 | 939.75
x2 = 0.6994 | 928.38
x2 = 0.7645 | 915.95
x2 = 0.8173 | 905.83
x2 = 0.8835 | 893.21
x2 = 0.9423 | 882.05

CCCCOC(=O)CC [butyl propanoate] + ClCCCl
Conditions | mass density [kg/m3]
x1 = 0.0334 | 1222.24
x1 = 0.0679 | 1199.39
x1 = 0.1032 | 1177.4
x1 = 0.1419 | 1154.78
x1 = 0.1821 | 1132.96
x1 = 0.2255 | 1110.88
x1 = 0.2719 | 1088.82
x1 = 0.3218 | 1066.84
x1 = 0.3754 | 1044.9
x1 = 0.4321 | 1023.34
x1 = 0.4959 | 1001.02
x1 = 0.5617 | 979.72
x1 = 0.636 | 957.49
x1 = 0.7142 | 936.1
x1 = 0.804 | 913.62
x1 = 0.8938 | 893.14

CCCCOC(=O)CCC [butyl butanoate] + ClCCCl
Conditions | mass density [kg/m3]
x1 = 0.0297 | 1221.83
x1 = 0.0605 | 1198.84
x1 = 0.0933 | 1176.2
x1 = 0.1275 | 1153.91
x1 = 0.1649 | 1131.5
x1 = 0.2054 | 1109
x1 = 0.2498 | 1086.2
x1 = 0.2967 | 1064.01
x1 = 0.3484 | 1041.64
x1 = 0.4037 | 1019.73
x1 = 0.4652 | 997.47
x1 = 0.5324 | 975.45
x1 = 0.605 | 953.73
x1 = 0.6862 | 931.87
x1 = 0.7785 | 909.66
x1 = 0.8821 | 887.38
